Measured values: patent US10004222B2, “Small molecule ice recrystallization inhibitors and methods of use thereof” (THE UNIVERSITY OF OTTAWA, priority 2012, dated 2018)
Where “and” joins values, the source holds several entries; their conditions need not be identical. Equal values may be shown once. Entries after “also recorded” stand apart in the source; their conditions may differ.

Legend:
[1] = splat cooling ice recrystallization inhibition (IRI) assay
Description: In this assay, the area of ice crystals are measured after a 30 minute annealing time at −6.4° C. and compared to a positive control for ice recrystallization resulting in a quantitative measurement of the mean ice grain size. For a positive control, a phosphate buffered saline (PBS) solution was utilized. All samples were normalized to the PBS positive control. The ice recrystallization inhibition activity of the carbohydrate-based non-ionic surfactants n-octyl-β-D-glucopyranoside (compound 3) and n-octyl-β-D-galactopyranoside (compound 4) is shown in FIG. 1.
In this assay, the area of ice crystals are measured after a 30 minute annealing time at −6.4° C. and compared to a positive control for ice recrystallization resulting in a quantitative measurement of the mean ice grain size. For a positive control, a PBS solution was utilized. All samples were normalized to the PBS positive control.
N-aryl-D-gluconamides (3a), (2a), (4a), and (1b) are a class of low molecular weight carbohydrate-based compounds. The ice recrystallization inhibition activity of (3a), (2a), (4a), and (1b) was assessed using a “splat cooling” assay. In this assay, the area of ice crystals are measured after a 30 minutes annealing time at −6.4° C. and compared to a positive control for ice recrystallization resulting in a quantitative measurement of the mean ice grain size. For a positive control, PBS was utilized. All samples were normalized to the PBS positive control.

[2] = test system: Tf1-α cells; experiment: cryopreservation of Tf1-α cells, viability/apoptosis by flow cytometry (7-AAD, Annexin V); assay type: cell-based; conditions: for Apoptosis (%) / Cell Viability (%): 55 mM aryl-aldonamide, post-thaw; for cell viability: stored at −196° C. for 48 hours
Description: Tf1-α cells were cultured to a final concentration of 2-3×10^6 cells/mL. Three million cells were transferred into cryovials and media were removed by aspiration after centrifugation at 1000 rpm for five minutes. 100 μL of RPMI media (10% FBS) supplemented with the cryopreservative of interest was added to the cryovial and vortexed. The cryovials were cooled at a rate of −1° C./min for 24 hours to −80° C. before being transferred to a liquid nitrogen dewar for storage until analysis.
Cryovials were thawed under fast thaw conditions (submerged in 37° C. water bath). The cells were then diluted to a concentration of 3×10^6 cells/mL with 1× Annexin V Binding Buffer and a cell count was obtained by hemacytometer (to obtain cell recovery). A 400 μL aliquot was transferred to a flow cytommetry tube. 10 μL of each Annexin V FITC (for apoptosis) and 7-AAD (for viability) dyes were added, the tube was vortexed and allowed to incubate in the dark for 15 minutes. The solution was diluted to 1 mL with 1× Annexin V Binding Buffer, vortexed and analyzed by flow cytommetry. […] With 2% DMSO, cell viability reached about 45%, and with 10% DMSO, cell viability reached around 78%.

[3] = test system: CD34+ cells (hematopoietic stem cells); experiment: post-thaw viability of CD34+ cells of cryopreserved umbilical cord blood, flow cytometry; assay type: cell-based, human
Description: Whole umbilical cord blood (UCB) should be stored at room temperature (15-25° C.) and processed within 48 hrs of collection. UCB is removed from collection bag and spilt in equal parts into 50 mL Falcon tubes. No more than 25 mL of UCB should be added per Falcon tube. UCB is diluted with 6% hetastarch (Hespan) to obtain a final concentration of 1% hetastarch and incubated for 10 minutes at room temperature. The tubes are then centrifuged at 50 g at 10° C. for 15-20 minutes, depending on volume. The centrifuge should not brake to stop. For total volumes of 30 mL, 15-17 minute centrifugation is utilized and for total volumes of 35 mL, 17-20 minute centrifugation is utilized. The supernatant and buffy coat (plasma and leukocytes) are removed carefully (not collecting RBCs) from the tubes and collected into new 50 mL Falcon tubes. These tubes are centrifuged at 400 g and 10° C. for 10 mins to pellet cells. The centrifuge brake can now be utilized. Plasma is removed and kept in new 50 mL Falcon tubes on ice. The cell pellets resuspended and combined in plasma to a total volume of 20 mL to generate leukocyte concentrate (LC). The LC is kept on ice for the duration of its use. Total mononuclear (CD45^+) and CD34^+ (hematopoetic stem cells) cell concentrations and viability are determined by flow cytometry (see Flow Cytometry procedure below). Aliquots of LC (50,000 CD34^+ cells) are utilized for cryopreservation experiments (see Cryopreservation Experiments procedure below).
(§1) Aliquots of LC (50,000 CD34^+ cells) are added to 2.0 mL cryovials. For each experiment, four cryovials are prepared (two for post-thaw viability analysis using flow cytometry and two for functionality analysis using the colony forming unit assay). Cryovials are kept on ice until placement in −80° C. freezer. Cryovials are centrifuged at 400 g and 10° C. for 5 minutes to pellet cells. After centrifugation, the time taken until placement in −80° C. freezer should not exceed 10 minutes. Supernatant is removed by aspiration or by decanting, but preferably by aspiration. Plasma (volume depends on desired cryosolution concentration) is added and cells are suspended by pipetting. Pre-made cryosolutions (see Cryosolutions) are added (volume depends on desired cryosolution concentration) and mixed by pipetting. Cryovials are placed in a Mr. Frosty® rate controlled freezing container which is then placed in a −80° C. freezer for 24 hours. By placing the cryovials in the freezing container, their contents undergo a cooling rate of about −1° C. per minute. After 24 hours, the cryovials are transferred to a liquid nitrogen dewar for storage until thawed for analysis.
(§2) Cryosolutions are prepared in distilled autoclaved water supplemented with 0.9% saline and 5% dextran for cryopreservation experiments and diluted with different volumes of plasma in cryovials depending on desired concentration of ice recrystallization inhibitor. N-(4-chlorophenyl)-D-gluconamide (4a) and N-(2-fluorophenyl)-D-gluconamide (2a) are prepared at 25 mM and N-(4-methoxyphenyl)-D-gluconamide (3a) and N-(2,6-difluorobenzyl)-D-gluconamide (1b) are prepared at 55 mM. 100, 50, 33 or 20 μL of 25 mM N-(4-chlorophenyl)-D-gluconamide (4a) or N-(2-fluorophenyl)-D-gluconamide (2a) are added to cryovials containing 50,000 CD34^+ cells suspended in 0, 50, 67, or 80 μL of plasma, respectively, for a final IRI concentration of 25, 12.5, 8 or 5 mM, respectively. 100, 50, 33 or 20 μL of 55 mM N-(4-methoxyphenyl)-D-gluconamide (3a) or N-(2,6-difluorobenzyl)-D-gluconamide (1b) are added to cryovials containing 50,000 CD34^+ cells suspended in 0, 50, 67, or 80 μL of plasma, respectively, for a final IRI concentration of […], 18 or 11 mM, respectively.
Total mononuclear cell (CD45+) and progenitor cell (CD34+) viability is assessed by flow cytometry using International Society of Hematotherapy and Graft Engineering (ISHAGE) guidelines (J. Hematother. Stem Cell Res. 1996, 5, 213-226). […]

[4] = test system: CD34+ cells (hematopoietic stem cells); experiment: colony forming unit (CFU) assay after cryopreservation of umbilical cord blood; assay type: cell-based, human; conditions: for BFU-E / CFU-G / CFU-GEMM / CFU-GM / CFU-M / Total Number of Colonies: post-thaw, 14 days in Methocult; for combined results of the CFU assays vs control: UCB units 26, 27, 28 combined, FIG. 41
Description: as §1, §2
Cryovials are thawed in a 37° C. water bath and diluted with 900 μL of IMDM (10% FBS, 1% penicillin/streptomycin). Cryovials are placed on ice until washed. Samples are mixed by pipetting and 80 μL is transferred to a 15 mL Falcon tube. 5 mL of Iscove's Modified Dulbecco's Medium (IMDM) supplemented with 10% fetal bovine serum (FBS) is added and this mixture is centrifuged at 1100 rpm for six minutes to yield a cell pellet and a supernatant. The supernatant is removed by aspiration and the cell pellet is resuspended in 1 mL IMDM (2% FBS) to form a suspension. The suspension is mixed by pipetting. 150 μL of this cell suspension is added to 3 mL Methocult™ media and plating is performed in accordance with manufacturer's instruction. The suspension with Methocult™ media is mixed adequately by vortexing for 20 seconds. The contents are allowed to settle and bubbles are allowed to subside before plating (approximately 5-10 minutes). Using a 3 mL syringe and 16 gauge blunt needles, 2.5 mL of the cell suspension in Methocult™ is taken from the bottom. 1 mL of this 2.5 mL is added to two 5 mL cell culture dishes. The dishes are swirled to ensure cells in Methocult™ medium coat the entire bottom of the dish. A third 5 mL dish is prepared to contain distilled autoclaved water without a lid. These three 5 mL dishes are placed in a 100 mL plate; two 5 mL dishes contain 1 mL of cell suspension in Methocult™ medium with the lid on and one containing distilled autoclaved water with the lid off. The lid is placed on the 100 mL plate and stored in a 37° C. incubator (5% CO2) for two weeks.

[5] = 22 mM in PBS, 30 min annealing at −6.4° C.
[6] = 10% DMSO (⅕ dilution with plasma), UCB Unit 27
[7] = 10% DMSO (⅕ dilution with plasma), UCB Unit 28

SMILES: OC[C@@H](O)[C@@H](O)[C@H](O)[C@@H](O)CO [D-sorbitol, reference compound]
- ice recrystallization inhibition activity ([1]; concentration not given): decreased activity relative to the pyranose forms

SMILES: CCCCCCCCO[C@@H]1OC(CO)[C@H](O)[C@H](O)C1O (stereo partly drawn) [compound 4, n-octyl-β-D-galactopyranoside]
- ice recrystallization inhibition activity ([1]; 11 mM in PBS): significantly better than 22 mM D-galactose
- ice recrystallization inhibition activity [1, 5]: significantly better than 22 mM D-galactose; also recorded: potent
- ice recrystallization inhibition activity ([1]; 44 mM in PBS): significantly better than 22 mM D-galactose

SMILES: O=C(Nc1ccccc1)[C@H](O)[C@@H](O)[C@H](O)[C@H](O)CO [(1a), phenyl-aldonamide]
- Apoptosis (%) ([2]; 0% DMSO): 0%
- Cell Viability (%) ([2]; 0% DMSO): 0.07%
- Apoptosis (%) ([2]; 2% DMSO): 0.9%
- Cell Viability (%) ([2]; 2% DMSO): 34.71%
- Apoptosis (%) ([2]; 10% DMSO): 4.22%
- Cell Viability (%) ([2]; 10% DMSO): 68.82%

SMILES: OC[C@@H](O)[C@H](O)[C@H](O)[C@@H](O)CO [D-dulcitol, reference compound]
- ice recrystallization inhibition activity ([1]; concentration not given): decreased activity relative to the pyranose forms

SMILES: CCCCCCCCO[C@@H]1OC(CO)[C@@H](O)[C@H](O)C1O (stereo partly drawn) [compound 3, n-octyl-β-D-glucopyranoside]
- ice recrystallization inhibition activity [1, 5]: identical to that of D-glucose
- ice recrystallization inhibition activity ([1]; 44 mM in PBS): still identical to that of the 22 mM D-glucose

SMILES: C[S+](C)[O-] [DMSO, Dimethyl sulfoxide, reference compound]
- Post-Thaw Viab. ([3]; 10% DMSO (no plasma)): 83%
- Post-Thaw Viab. [3, 6]: 88%
- Post-Thaw Viab. [3, 7]: 87%
- cell viability ([2]; 2% DMSO alone): about 45%
- cell viability ([2]; 10% DMSO alone): around 78%
- Tot. No. Colonies ([4]; 10% DMSO (no plasma)): 47 and 34
- Tot. No. Colonies [4, 6]: 56 and 35
- Tot. No. Colonies [4, 7]: 36
- BFU-E ([4]; 10% DMSO only, IRI None): 15.6
- CFU-G ([4]; 10% DMSO only, IRI None): 5.1
- CFU-GEMM ([4]; 10% DMSO only, IRI None): 2.8
- CFU-GM ([4]; 10% DMSO only, IRI None): 6.8
- CFU-M ([4]; 10% DMSO only, IRI None): 0.7
- Total Number of Colonies ([4]; 10% DMSO only, IRI None): 31
- Tot. No. Colonies, AVG ([4]; average of control solutions): 28

SMILES: O=C(Nc1ccccc1Cl)[C@H](O)[C@@H](O)[C@H](O)[C@H](O)CO [(5a), N-(2-chlorophenyl)-D-gluconamide]
- BFU-E ([4]; 5 mM IRI, 10% DMSO): 19.2
- CFU-G ([4]; 5 mM IRI, 10% DMSO): 5.0
- CFU-GEMM ([4]; 5 mM IRI, 10% DMSO): 2.3
- CFU-GM ([4]; 5 mM IRI, 10% DMSO): 5.2
- CFU-M ([4]; 5 mM IRI, 10% DMSO): 1.0
- Total Number of Colonies ([4]; 5 mM IRI, 10% DMSO): 32.7
- BFU-E ([4]; 8 mM IRI, 10% DMSO): 18.0
- CFU-G ([4]; 8 mM IRI, 10% DMSO): 5.0
- CFU-GEMM ([4]; 8 mM IRI, 10% DMSO): 2.0
- CFU-GM ([4]; 8 mM IRI, 10% DMSO): 4.0
- CFU-M ([4]; 8 mM IRI, 10% DMSO): 2.0
- Total Number of Colonies ([4]; 8 mM IRI, 10% DMSO): 31.0
- BFU-E ([4]; 12.5 mM IRI, 10% DMSO): 27.0
- CFU-G ([4]; 12.5 mM IRI, 10% DMSO): 8.0
- CFU-GEMM ([4]; 12.5 mM IRI, 10% DMSO): 4.5
- CFU-GM ([4]; 12.5 mM IRI, 10% DMSO): 6.5
- CFU-M ([4]; 12.5 mM IRI, 10% DMSO): 1.5
- Total Number of Colonies ([4]; 12.5 mM IRI, 10% DMSO): 47.5
- fold increase in functionality relative to the control ([4]; 12.5 mM vs DMSO only): 1.5 fold
- BFU-E ([4]; 25 mM IRI, 10% DMSO): 20.5
- CFU-G ([4]; 25 mM IRI, 10% DMSO): 7.0
- CFU-GEMM ([4]; 25 mM IRI, 10% DMSO): 1.0
- CFU-GM ([4]; 25 mM IRI, 10% DMSO): 11.0
- CFU-M ([4]; 25 mM IRI, 10% DMSO): 2.5
- Total Number of Colonies ([4]; 25 mM IRI, 10% DMSO): 42.0
- combined results of the CFU assays vs control [4]: did not perform particularly well

SMILES: O=C(NCc1cc(F)cc(F)c1)[C@H](O)[C@@H](O)[C@H](O)[C@H](O)CO [(2b), N-(3,5-difluorobenzyl)-D-gluconamide]
- combined results of the CFU assays vs control [4]: did not perform particularly well

SMILES: COc1ccccc1NC(=O)[C@H](O)[C@@H](O)[C@H](O)[C@H](O)CO [(7a), N-(2-methoxyphenyl)-D-gluconamide]
- combined results of the CFU assays vs control [4]: did not perform particularly well

SMILES: O=C(Nc1ccc(F)cc1)[C@H](O)[C@@H](O)[C@H](O)[C@H](O)CO [(6a), N-(4-Fluorophenyl)-D-gluconamide]
- combined results of the CFU assays vs control [4]: did not perform particularly well
